Source: US12570655B2, “Cysteine covalent modifiers of AKT1 and uses thereof” (Terremoto Biosciences, Inc., priority 2023, dated 2026)

What was measured:
Type in all cases: cell-based
AKT1 E17K = biological target: T1, AKT1 E17K (Homo sapiens, UniProt P31749, E17K); assay: Live cell AKT1 E17K target engagement by NanoBRET competitive probe displacement; conditions: HEK293 cells transfected with kinase-NanoLuciferase fusion, 2 h at 37° C.
T1 construct: expressed in transfected cells; host or cells: HEK293
T1 sequence (P31749 whole entry E17K, the tested form may be a part): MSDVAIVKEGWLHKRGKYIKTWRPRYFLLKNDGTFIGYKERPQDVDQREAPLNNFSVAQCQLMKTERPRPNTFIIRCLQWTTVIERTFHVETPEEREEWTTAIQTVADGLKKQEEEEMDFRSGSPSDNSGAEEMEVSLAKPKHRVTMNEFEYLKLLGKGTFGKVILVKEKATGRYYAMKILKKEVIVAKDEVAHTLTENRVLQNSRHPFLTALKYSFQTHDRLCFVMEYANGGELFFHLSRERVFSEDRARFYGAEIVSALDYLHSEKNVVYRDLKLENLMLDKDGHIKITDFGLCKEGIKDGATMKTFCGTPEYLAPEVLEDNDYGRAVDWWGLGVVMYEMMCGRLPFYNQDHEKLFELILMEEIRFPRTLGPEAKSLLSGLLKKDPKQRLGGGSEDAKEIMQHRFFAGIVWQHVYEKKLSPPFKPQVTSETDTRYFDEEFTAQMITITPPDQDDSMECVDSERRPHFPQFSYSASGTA
Method in brief: (§1)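 IC50 fitted (Hill, log inhibitor vs response) to BRET signal, E600/E460 ratio, measured with extracellular NanoLuc inhibitor present. Intact transfected HEK293 cells bearing NanoLuc-tagged kinase were co-incubated 2 h, 37 °C, with compound dilution series and ~EC50 ATP-competitive fluorescent tracer.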

AKT2 = biological target: T2, AKT2 (Homo sapiens, UniProt P31751); assay: Live cell AKT2 target engagement by NanoBRET competitive probe displacement; conditions: HEK293 cells transfected with kinase-NanoLuciferase fusion, 2 h at 37° C.
T2 construct: expressed in transfected cells; host or cells: HEK293
T2 sequence (P31751 whole entry, the tested form may be a part): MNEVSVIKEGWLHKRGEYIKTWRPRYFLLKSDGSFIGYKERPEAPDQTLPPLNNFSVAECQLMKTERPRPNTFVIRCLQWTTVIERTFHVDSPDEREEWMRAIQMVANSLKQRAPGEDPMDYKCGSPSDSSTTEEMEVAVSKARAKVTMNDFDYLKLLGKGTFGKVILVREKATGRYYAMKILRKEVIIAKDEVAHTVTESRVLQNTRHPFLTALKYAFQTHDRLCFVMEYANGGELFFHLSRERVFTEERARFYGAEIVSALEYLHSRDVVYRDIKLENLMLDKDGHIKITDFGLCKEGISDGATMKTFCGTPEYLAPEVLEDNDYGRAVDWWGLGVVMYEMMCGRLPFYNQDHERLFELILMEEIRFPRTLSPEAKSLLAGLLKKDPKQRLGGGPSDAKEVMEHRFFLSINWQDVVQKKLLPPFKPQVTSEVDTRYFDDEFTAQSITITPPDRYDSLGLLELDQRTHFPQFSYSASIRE
Method in brief: as §1

AKT1 WT = biological target: T3, AKT1 WT (Homo sapiens, UniProt P31749); assay: Live cell AKT1 WT target engagement by NanoBRET competitive probe displacement; conditions: HEK293 cells transfected with kinase-NanoLuciferase fusion, 2 h at 37° C.
T3 construct: expressed in transfected cells; host or cells: HEK293
T3 sequence (P31749 whole entry, the tested form may be a part): as the sequence (P31749 whole entry E17K, the tested form may be a part) above, with K17E counted along it
Method in brief: as §1

[1] = system: LAPC4 prostate cancer cells; assay: Antiproliferative effects in LAPC4 cells (CellTiter Glo); conditions: LAPC4 cells (AKT1 E17K allele), 72 h, read-out: LAPC4 proliferation IC50
Method in brief: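 Growth inhibition was measured by CellTiter Glo ATP luminescence after 72 h compound exposure of 1,000 seeded cells/well. The cells were AKT1 E17K-expressing LAPC4 prostate cancer cells maintained in IMDM plus 12% FBS. IC50 values came from Hill-equation fits.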

Row | Compound | IC50 (AKT1 E17K) | IC50 (AKT2) | IC50 (AKT1 WT) | IC50 [1]
1 | C=CC(=O)N1CCCC(N[C@H]2CCc3cc(-n4c(-c5cccnc5N)nc5ccc(-n6cccn6)nc54)ccc32)CC1 (single isomer, unassigned) [Example 82, 1-((*)-4-(((S)-5-(2-(2-aminopyridin-3-yl)-5-(1H-pyrazol-1-yl)-3H-imidazo[4,5-b]pyridin-3-yl)-2,3-dihydro-1H-inden-1-yl)amino)azepan-1-yl)prop-2-en-1-one] | 247 nM | 640 nM | 78.1 nM | 568 nM
2 | C=CC(=O)N1[C@H](C)CC(N[C@H]2CCc3cc(-n4c(-c5cccnc5N)nc5ccc(-n6cccn6)nc54)ccc32)C[C@@H]1C (single isomer, unassigned) [Example 87, 1-((2S,4*,6R)-4-(((R)-5-(2-(2-aminopyridin-3-yl)-5-(1H-pyrazol-1-yl)-3H-imidazo[4,5-b]pyridin-3-yl)-2,3-dihydro-1H-inden-1-yl)amino)-2,6-dimethylpiperidin-1-yl)prop-2-en-1-one] | 165 nM | 577 nM | 25.5 nM | 364 nM
3 | C=CC(=O)N1[C@H](C)CC(N[C@H]2CCc3cc(-n4c(-c5cccnc5N)nc5ccc(-n6cccn6)nc54)ccc32)C[C@@H]1C (single isomer, unassigned) [Example 88, 1-((2S,4*,6R)-4-(((R)-5-(2-(2-aminopyridin-3-yl)-5-(1H-pyrazol-1-yl)-3H-imidazo[4,5-b]pyridin-3-yl)-2,3-dihydro-1H-inden-1-yl)amino)-2,6-dimethylpiperidin-1-yl)prop-2-en-1-one] | 48.7 nM | 180 nM | 21.5 nM | 87.7 nM
4 | C=CC(=O)NC1CC(N[C@H]2CCc3cc(-n4c(-c5cccnc5N)nc5ccc(-n6cccn6)nc54)ccc32)C1 (single isomer, unassigned) [Example 89, N-((1*,3*)-3-(((S)-5-(2-(2-aminopyridin-3-yl)-5-(1H-pyrazol-1-yl)-3H-imidazo[4,5-b]pyridin-3-yl)-2,3-dihydro-1H-inden-1-yl)amino)cyclobutyl)acrylamide] | 22.9 nM | 75.2 nM | 8.15 nM | 74.9 nM
5 | C=CC(=O)NC1CC(N[C@H]2CCc3cc(-n4c(-c5cccnc5N)nc5ccc(-n6cccn6)nc54)ccc32)C1 (single isomer, unassigned) [Example 90, N-((1*,3*)-3-(((S)-5-(2-(2-aminopyridin-3-yl)-5-(1H-pyrazol-1-yl)-3H-imidazo[4,5-b]pyridin-3-yl)-2,3-dihydro-1H-inden-1-yl)amino)cyclobutyl)acrylamide] | 156 nM | 109 nM | 41.2 nM | 351 nM
6 | C=CC(=O)N1CC2(CCC(N[C@H]3CCc4cc(-n5c(-c6cccnc6N)nc6ccc(-n7cccn7)nc65)ccc43)C2)C1 (single isomer, unassigned) [Example 91, 1-((*)-6-(((S)-5-(2-(2-aminopyridin-3-yl)-5-(1H-pyrazol-1-yl)-3H-imidazo[4,5-b]pyridin-3-yl)-2,3-dihydro-1H-inden-1-yl)amino)-2-azaspiro[3.4]octan-2-yl)prop-2-en-1-one] | 116 nM | 558 nM | 36.6 nM | 351 nM
7 | C=CC(=O)N1CC2(CCC(N[C@H]3CCc4cc(-n5c(-c6cccnc6N)nc6ccc(-n7cccn7)nc65)ccc43)C2)C1 (single isomer, unassigned) [Example 92, 1-((*)-6-(((S)-5-(2-(2-aminopyridin-3-yl)-5-(1H-pyrazol-1-yl)-3H-imidazo[4,5-b]pyridin-3-yl)-2,3-dihydro-1H-inden-1-yl)amino)-2-azaspiro[3.4]octan-2-yl)prop-2-en-1-one] | 18.9 nM | 58.8 nM | 6.94 nM | 30.7 nM
8 | C=CC(=O)N1CCC(N[C@H]2CCc3cc(-n4c(-c5cccnc5N)nc5ccc(-n6cccn6)nc54)ccc32)CC12CCC2 (single isomer, unassigned) [Example 93, 1-((*)-8-(((S)-5-(2-(2-aminopyridin-3-yl)-5-(1H-pyrazol-1-yl)-3H-imidazo[4,5-b]pyridin-3-yl)-2,3-dihydro-1H-inden-1-yl)amino)-5-azaspiro[3.5]nonan-5-yl)prop-2-en-1-one] | 6.16 nM | 11.4 nM | 5.63 nM | 5.02 nM
9 | C=CC(=O)N1CCC(N[C@H]2CCc3cc(-n4c(-c5cccnc5N)nc5ccc(-n6cccn6)nc54)ccc32)CC12CCC2 (single isomer, unassigned) [Example 94, 1-((*)-8-(((S)-5-(2-(2-aminopyridin-3-yl)-5-(1H-pyrazol-1-yl)-3H-imidazo[4,5-b]pyridin-3-yl)-2,3-dihydro-1H-inden-1-yl)amino)-5-azaspiro[3.5]nonan-5-yl)prop-2-en-1-one] | 652 nM | 2640 nM | 147 nM | 1170 nM
10 | C=CC(=O)N1CCC(N[C@H]2CCc3cc(-n4c(-c5cccnc5N)nc5ccc(-n6cccn6)nc54)ccc32)C(C)C1 (single isomer, unassigned) [Example 99, 1-((3*,4*)-4-(((S)-5-(2-(2-aminopyridin-3-yl)-5-(1H-pyrazol-1-yl)-3H-imidazo[4,5-b]pyridin-3-yl)-2,3-dihydro-1H-inden-1-yl)amino)-3-methylpiperidin-1-yl)prop-2-en-1-one] | 89.4 nM | 560 nM | 33.4 nM | 716 nM
11 | C=CC(=O)N1CCC(N[C@H]2CCc3cc(-n4c(-c5cccnc5N)nc5ccc(-n6cccn6)nc54)ccc32)C(C)C1 (single isomer, unassigned) [Example 100, 1-((3*,4*)-4-(((S)-5-(2-(2-aminopyridin-3-yl)-5-(1H-pyrazol-1-yl)-3H-imidazo[4,5-b]pyridin-3-yl)-2,3-dihydro-1H-inden-1-yl)amino)-3-methylpiperidin-1-yl)prop-2-en-1-one] | 53.6 nM | 135 nM | 9.09 nM | 187 nM
12 | C=CC(=O)N1CCC(N[C@H]2CCc3cc(-n4c(-c5cccnc5N)nc5ccc(-n6cccn6)nc54)ccc32)C(C)C1 (single isomer, unassigned) [Example 101, 1-((3*,4*)-4-(((S)-5-(2-(2-aminopyridin-3-yl)-5-(1H-pyrazol-1-yl)-3H-imidazo[4,5-b]pyridin-3-yl)-2,3-dihydro-1H-inden-1-yl)amino)-3-methylpiperidin-1-yl)prop-2-en-1-one] | 82.3 nM | 290 nM | 18.3 nM | 270 nM
13 | C=CC(=O)N1CCC(N[C@H]2CCc3cc(-n4c(-c5cccnc5N)nc5ccc(-n6cccn6)nc54)ccc32)C(C)C1 (single isomer, unassigned) [Example 102, 1-((3*,4*)-4-(((S)-5-(2-(2-aminopyridin-3-yl)-5-(1H-pyrazol-1-yl)-3H-imidazo[4,5-b]pyridin-3-yl)-2,3-dihydro-1H-inden-1-yl)amino)-3-methylpiperidin-1-yl)prop-2-en-1-one] | 35.4 nM | 101 nM | 8.09 nM | 147 nM
14 | C=CC(=O)N1CCC(N[C@H]2CCc3cc(-n4c(-c5cccnc5N)nc5ccc(-n6cccn6)nc54)ccc32)C(F)C1 (single isomer, unassigned) [Example 103, 1-((3*,4*)-4-(((S)-5-(2-(2-aminopyridin-3-yl)-5-(1H-pyrazol-1-yl)-3H-imidazo[4,5-b]pyridin-3-yl)-2,3-dihydro-1H-inden-1-yl)amino)-3-fluoropiperidin-1-yl)prop-2-en-1-one] | 80.1 nM | 547 nM | 19.3 nM | 317 nM
